In the supplement of paper PMC11451515:

Tested on: SEM cells
Experiment: cell viability relative to DMSO control; higher = less cytotoxic
Conditions: 48 h
Outline: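 Viability is a per-plate percentage relative to DMSO wells, with cell-free wells as background. CellTiter-Glo One luminescence was read after 48 h at 37°C on 1536-well plates (5 μl) of NOMO1 or SEM (500 cells/well) or P12-Ichikawa (1000 cells/well) leukemia cells. The cells had been adapted for at least four passages in each medium and pin-dosed with library compounds in DMSO from 47 μM to 0.79 nM in 11 threefold steps.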

[1] = HPLM + 10% dialyzed FBS, 0.000781 µM
[2] = HPLM + 10% dialyzed FBS, 0.00234 µM
[3] = HPLM + 10% dialyzed FBS, 0.00702 µM
[4] = HPLM + 10% dialyzed FBS, 0.0211 µM
[5] = HPLM + 10% dialyzed FBS, 0.0632 µM
[6] = HPLM + 10% dialyzed FBS, 0.19 µM
[7] = HPLM + 10% dialyzed FBS, 0.569 µM
[8] = HPLM + 10% dialyzed FBS, 1.71 µM
[9] = HPLM + 10% dialyzed FBS, 5.12 µM
[10] = HPLM + 10% dialyzed FBS, 15.4 µM
[11] = HPLM + 10% dialyzed FBS, 46.1 µM
[12] = RPMI 5 mM glucose + 10% FBS, 0.000781 µM
[13] = RPMI 5 mM glucose + 10% FBS, 0.00234 µM
[14] = RPMI 5 mM glucose + 10% FBS, 0.00702 µM
[15] = RPMI 5 mM glucose + 10% FBS, 0.0211 µM
[16] = RPMI 5 mM glucose + 10% FBS, 0.0632 µM
[17] = RPMI 5 mM glucose + 10% FBS, 0.19 µM
[18] = RPMI 5 mM glucose + 10% FBS, 0.569 µM
[19] = RPMI 5 mM glucose + 10% FBS, 1.71 µM
[20] = RPMI 5 mM glucose + 10% FBS, 5.12 µM
[21] = RPMI 5 mM glucose + 10% FBS, 15.4 µM
[22] = RPMI 5 mM glucose + 10% FBS, 46.1 µM
[23] = RPMI 5 mM glucose + 10% dialyzed FBS, 0.000781 µM
[24] = RPMI 5 mM glucose + 10% dialyzed FBS, 0.00234 µM
[25] = RPMI 5 mM glucose + 10% dialyzed FBS, 0.00702 µM
[26] = RPMI 5 mM glucose + 10% dialyzed FBS, 0.0211 µM
[27] = RPMI 5 mM glucose + 10% dialyzed FBS, 0.0632 µM
[28] = RPMI 5 mM glucose + 10% dialyzed FBS, 0.19 µM
[29] = RPMI 5 mM glucose + 10% dialyzed FBS, 0.569 µM
[30] = RPMI 5 mM glucose + 10% dialyzed FBS, 1.71 µM
[31] = RPMI 5 mM glucose + 10% dialyzed FBS, 5.12 µM
[32] = RPMI 5 mM glucose + 10% dialyzed FBS, 15.4 µM
[33] = RPMI 5 mM glucose + 10% dialyzed FBS, 46.1 µM

SMILES	cell viability [1]	cell viability [2]	cell viability [3]	cell viability [4]	cell viability [5]	cell viability [6]	cell viability [7]	cell viability [8]	cell viability [9]	cell viability [10]	cell viability [11]	cell viability [12]	cell viability [13]	cell viability [14]	cell viability [15]	cell viability [16]	cell viability [17]	cell viability [18]	cell viability [19]	cell viability [20]	cell viability [21]	cell viability [22]	cell viability [23]	cell viability [24]	cell viability [25]	cell viability [26]	cell viability [27]	cell viability [28]	cell viability [29]	cell viability [30]	cell viability [31]	cell viability [32]	cell viability [33]
CCn1c(-c2nonc2N)nc2c(C#CC(C)(C)O)ncc(OC[C@H]3CCCNC3)c21	78.7%	83.1%	87.2%	86.4%	75.2%	82.7%	76.9%	66.2%	70.3%	43%	10.5%	104%	96.6%	107%	94.1%	75.7%	99.2%	96.4%	64.9%	77.7%	60%	14.8%	85.8%	85.2%	95.8%	75.7%	68.6%	97.1%	90.7%	53.9%	62.8%	43.6%	14.1%
OC1=CC2=C(C=C1)C(=O)\C(=C(O2)\C3=CC(=C(O)C=C3)O)O	103%	116%	104%	93.6%	102%	99.5%	102%	104%	104%	93.2%	32.9%	111%	113%	102%	111%	117%	102%	102%	97%	98.2%	100%	22.8%	84.9%	98.1%	89.9%	91.6%	99.2%	96.5%	103%	88.5%	85.9%	75.1%	20.1%
O=C1\C=C/C=C2/[C@H]3CNC[C@H](C3)CN12	97.4%	95.2%	103%	108%	101%	106%	114%	104%	102%	112%	103%	101%	104%	102%	113%	123%	114%	103%	127%	113%	112%	61.2%	108%	76.6%	101%	118%	112%	123%	120%	119%	126%	103%	113%
N[C@H]2CN(CC12CC1)c3c(F)cc4c(c3Cl)[N@@](C=C(C4=O)C(=O)O)C5C[C@H]5F (some centres not stated)	90.7%	93.2%	89.9%	88.9%	92.2%	86.4%	84.3%	84.7%	90.5%	60.6%	84.6%	107%	126%	112%	119%	103%	136%	73.2%	113%	103%	74.6%	95.4%	71.1%	83%	92.4%	83.8%	92.2%	92.5%	75.6%	98.6%	91%	50.1%	78.7%
N\C1=N\C2=C(N=C[N]2COCCO)C(=O)N1	93.7%	101%	97.2%	103%	100%	99.7%	111%	104%	89.5%	77.3%	60.5%	87%	107%	106%	112%	101%	104%	115%	117%	106%	93.4%	56.5%	83%	93.9%	95.9%	94.3%	95.1%	115%	90.1%	101%	88.2%	73.3%	44.8%
O=C(NCCCCN1CCOCC1)c1cc2ccccc2o1												102%	122%	112%	123%	121%	114%	96.6%	93.6%	99.9%	92.8%	98.4%											
O=S(=O)([O-])CCS.[Na+]	96.5%	104%	100%	96.9%	113%	113%	122%	107%	100%	116%	107%	101%	102%	89.6%	124%	107%	115%	109%	124%	112%	123%	122%	109%	104%	108%	108%	114%	137%	130%	135%	121%	137%	155%
CC(C)=CCC/C(C)=C/CC/C(C)=C/CSc1ccccc1C(=O)O	97.5%	116%	111%	97.3%	93.2%	81.2%	80%	67.3%	58.3%	30.3%	8.4%	118%	124%	111%	119%	117%	106%	96.6%	71.8%	62.4%	22.3%	2.67%	94.6%	105%	84.7%	106%	97.8%	99.1%	74.8%	71.2%	62.5%	33.8%	8.59%
